Common to all, as to type: cell-based
Assay [1] relates to Candida albicans (NCPF3179). Briefly: MIC, Candida albicans. The conditions noted are these: Candida albicans, NCPF3179, read-out: Minimum inhibitory concentrations (MICs), C. albicans. The procedure:
(§1) The effects of compounds of the invention in relation to inhibiting the growth of various microorganisms was determined using methods known to those skilled in the art, for example in vitro methods as described in J. Med. Chem. 47, 2133-2156 (2004) and in vivo methods as described in J. Med. Microbiol. 46, 208-213 (1997), the disclosures of which documents are hereby incorporated by reference. In particular, minimum inhibitory concentrations (MICs) against microorganisms (e.g. S. Aureus, Streptococcus faecalis, Aspergillus niger, Candida albicans or Mycobacterium fortuitum) for compounds of the invention may be measured using procedures such as those described in A. J. Drummond and […] development of microbiological methods for phytochemical screening” Recent Res. Devel. […] The test wells on each 96 well microtitre plate were initially inoculated with culture medium (100 μL) using Mueller-Hinton Broth for antibacterial assays and Sabouraud Broth for antifungal assays. A solution of each test sample (100 μL) was added to one row of each plate and a series of doubling dilutions made for successive rows. Incubation was at 37° C. for antibacterial assay and 25° C. for antifungal assay. […] From the observed pattern of colour, the MIC was determined. All tests included sterility and growth controls.

In assay [2] the test system is Staphylococcus aureus Strain 1 (BSAC04(1)) (Clinical isolate from Glasgow Royal Infirmary). As to the kind of experiment: MIC, Staphylococcus aureus Strain 1. The conditions noted are these: Staphylococcus aureus, read-out: Minimum inhibitory concentrations (MICs), S aureus 1. The procedure:
The effects of compounds of the invention in relation to inhibiting the growth of various microorganisms was determined using methods known to those skilled in the art, for example in vitro methods as described in J. Med. Chem. 47, 2133-2156 (2004) and in vivo methods as described in J. Med. Microbiol. 46, 208-213 (1997), the disclosures of which documents are hereby incorporated by reference.
In particular, minimum inhibitory concentrations (MICs) against microorganisms (e.g. S. Aureus, Streptococcus faecalis, Aspergillus niger, Candida albicans or Mycobacterium fortuitum) for compounds of the invention may be measured using procedures such as those described in A. J. Drummond and R. D. Waigh “The development of microbiological methods for phytochemical screening” Recent Res. Devel. Phytochem. 4, 143-152 (2000), the disclosures of which document are hereby incorporated by reference.
Sample dilutions were typically prepared by dissolving the test sample (2 mg) in sterile water (10 mL) to provide a working concentration of 200 μg/ml. The test wells on each 96 well microtitre plate were initially inoculated with culture medium (100 μL) using Mueller-Hinton Broth for antibacterial assays and Sabouraud Broth for antifungal assays. A solution of each test sample (100 μL) was added to one row of each plate and a series of doubling dilutions made for successive rows. Incubation was at 37° C. for antibacterial assay and 25° C. for antifungal assay. […] From the observed pattern of colour, the MIC was determined. All tests included sterility and growth controls.

Assay [3] has as its system Staphylococcus aureus Strain 2 (NCTC 6571). Briefly: MIC, Staphylococcus aureus Strain 2. The conditions noted are these: Staphylococcus aureus, NCTC6571, read-out: Minimum inhibitory concentrations (MICs), S. aureus 2. Here is the method: as §1
For assay [4], the system named is Aspergillus niger (IMI 1745). As to the kind of experiment: MIC, Aspergillus niger. The conditions noted are these: Aspergillus niger, read-out: Minimum inhibitory concentrations (MICs), A. niger. The procedure:
as §1

Assay [5] relates to Mycobacter fortuitum (NCTC 10394). Briefly: MIC, Mycobacter fortuitum. The conditions noted are these: Mycolicibacterium fortuitum, NCTC10394, read-out: Minimum inhibitory concentrations (MICs), M. fortuitum. The procedure:
as §1

Assay [6] concerns Streptococcus faecalis (NCTC 775). Briefly: MIC, Streptococcus faecalis. The conditions noted are these: Enterococcus faecalis, NCTC775, read-out: Minimum inhibitory concentrations (MICs), St. faecalis. The procedure: as §1
Where [7] appears, read: value in parentheses, na = not active.

Like-named read-outs stand apart in the source and are kept apart here.

Our source for the MIC values is patent US8012967B2, “Minor groove binders” (University of Strathclyde, priority 2006, dated 2011).

Consider `COc1cccc(/C=C/c2ccc(C(=O)Nc3cc(C(=O)Nc4cc(C(=O)NCCCN(C)C)n(C)c4)n(C)c3)cc2)c1` [Example 4, N-[5-({[3-(Dimethylamino)propyl]amino}carbonyl)-1-methyl-1H-pyrrol-3-yl]-4-({4-[(E)-2-(3-methoxyphenyl)ethenyl]benzoyl}amino)-1-methyl-1H-pyrrole-2-carboxamide], for which the MIC came out at 100 µg/mL in assay [1] (setting [7]); 143 µM in assay [1] (value outside parentheses); 6.25 µg/mL in assay [2] (setting [7]); 8.9 µM in assay [2] (value outside parentheses); 12.5 µg/mL in assay [3] (setting [7]); 17.9 µM in assay [3] (value outside parentheses). Besides, the MIC in assay [4] (setting [7]) is 50 µg/mL; in assay [4] (value outside parentheses), 72 µM.

As to `Cn1cc(NC(=O)c2cc(NC(=O)c3cc(/C=C/c4cnc5ccccc5c4)cn3C)cn2C)cc1C(=O)NCCN1CCOCC1` [Example 10, 1-Methyl-N-[1-methyl-5-({[1-methyl-5-({[2-(4-morpholinyl)ethyl]amino}-carbonyl)-1H-pyrrol-3-yl]amino}carbonyl)-1H-pyrrol-3-yl]-4-[(E)-2-(3-quinolinyl)ethenyl]-1H-pyrrole-2-carboxamide], the MIC amounted to 100 µg/mL in assay [1] (setting [7]); 116 µM in assay [1] (value outside parentheses); 100 µg/mL in assay [5] (setting [7]); 116 µM in assay [5] (value outside parentheses); 4 µg/mL in assay [2] (setting [7]); 5.3 µM in assay [2] (value outside parentheses). The results for the MIC in assay [6] (setting [7]) and in assay [6] (value outside parentheses) were 12.5 µg/mL and 15 µM, respectively.

As for `CC(C)CCc1sc(NC(=O)c2cc(NC(=O)c3ccc(/C=C/c4cnc5ccccc5c4)cc3)cn2C)nc1C(=O)NCCN1CCOCC1` [Example 16, 5-Isopentyl-2-({[1-methyl-4-({4-[(E)-2-(3-quinolinyl)ethenyl]benzoyl}amino)-1H-pyrrol-2-yl]carbonyl}amino)-N-[2-(4-morpholinyl)ethyl]-1,3-thiazole-4-carboxamide], the MIC in assay [1] (setting [7]) turned out to be 50 µg/mL; in assay [1] (value outside parentheses), 61 µM; in assay [5] (setting [7]), 100 µg/mL; in assay [5] (value outside parentheses), 122 µM; in assay [4] (setting [7]), 100 µg/mL; in assay [4] (value outside parentheses) it was 122 µM.

Consider `CC(C)CCc1sc(NC(=O)c2cc(NC(=O)c3ccc(/C=C/c4cc5ccccc5nc4Cl)cc3)cn2C)nc1C(=O)NCCN1CCOCC1` [Example 17, 2-({[4-({4-[(E)-2-(2-Chloro-3-quinolinyl)ethenyl]benzoyl}amino)-1-methyl-1H-pyrrol-2-yl]carbonyl}amino)-5-isopentyl-N-[2-(4-morpholinyl)ethyl]-1,3-thiazole-4-carboxamide], for which the MIC in assay [1] (setting [7]) was 100 µg/mL; in assay [1] (value outside parentheses), 117 µM; in assay [5] (setting [7]), 100 µg/mL; in assay [5] (value outside parentheses), 117 µM.

For the compound `CC(C)CCc1sc(NC(=O)c2cc(NC(=O)c3ccc(/C=C/c4cc5ccccc5nc4On4nnc5ccccc54)cc3)cn2C)nc1C(=O)NCCN1CCOCC1` [Example 18, 2-[({4-[(4-{(E)-2-[2-(1H-1,2,3-Benzotriazol-1-yloxy)-3-quinolinyl]ethenyl}-benzoyl)amino]-1-methyl-1H-pyrrol-2-yl}carbonyl)amino]-5-isopentyl-N-[2-(4-morpholinyl)ethyl]-1,3-thiazole-4-carboxamide], the MIC in assay [1] (setting [7]) was determined as 100 µg/mL; in assay [1] (value outside parentheses) it was 169 µM; in assay [5] (setting [7]) it was 100 µg/mL; in assay [5] (value outside parentheses) it was 169 µM.

On to `COc1ccc(/C=C/c2ccc3cc(C(=O)Nc4cc(C(=O)Nc5cc(C(=O)NCCN6CCOCC6)n(C)c5)n(C)c4)ccc3n2)cc1` [Example 23, 2-[(E)-2-(4-Methoxyphenyl)ethenyl]-N-[1-methyl-5-({[1-methyl-5-({[2-(4-morpholinyl)ethyl]amino}carbonyl)-1H-pyrrol-3-yl]amino}carbonyl)-1H-pyrrol-3-yl]-6-quinolinecarboxamide], for which the MIC in assay [1] (setting [7]) worked out at 100 µg/mL; in assay [1] (value outside parentheses) it was 129 µM; in assay [5] (setting [7]), 100 µg/mL; in assay [5] (value outside parentheses), 129 µM; in assay [2] (setting [7]), 4 µg/mL; in assay [2] (value outside parentheses), 5.2 µM. Also, the MIC in assay [6] (setting [7]) amounted to 25 µg/mL; in assay [6] (value outside parentheses), 32 µM; in assay [4] (setting [7]), 50 µg/mL; in assay [4] (value outside parentheses), 64 µM.

On to `CSc1ccc(/C=C/c2ccc3cc(C(=O)Nc4cc(C(=O)Nc5cc(C(=O)NCCN6CCOCC6)n(C)c5)n(C)c4)ccc3n2)cc1` [Example 24, N-[1-Methyl-5-({[1-methyl-5-({[2-(4-morpholinyl)ethyl]amino}carbonyl)-1H-pyrrol-3-yl]amino}carbonyl)-1H-pyrrol-3-yl]-2-{(E)-2-[4-(methylsulfanyl)-phenyl]ethenyl}-6-quinolinecarboxamide], for which the MIC in assay [1] (setting [7]) stood at 100 µg/mL; in assay [1] (value outside parentheses), 126 µM; in assay [2] (setting [7]), 4 µg/mL; in assay [2] (value outside parentheses), 5.1 µM; in assay [6] (setting [7]), 100 µg/mL; in assay [6] (value outside parentheses), 26 µM. Besides, the MIC in assay [3] (setting [7]) was determined as 100 µg/mL; in assay [3] (value outside parentheses), 126 µM; in assay [4] (setting [7]), 100 µg/mL; in assay [4] (value outside parentheses), 126 µM.

As for `CSc1ccc(/C=C/c2ccc(C(=O)Nc3cc(C(=O)Nc4cc(C(=O)NCCN5CCOCC5)n(C)c4)n(C)c3)cn2)cc1` [Example 25, N-[1-methyl-5-({[1-methyl-5-({[2-(4-morpholinyl)ethyl]amino}carbonyl)-1H-pyrrol-3-yl]amino}carbonyl)-1H-pyrrol-3-yl]-6-{(E)-2-[4-(methylsulfanyl)-phenyl]ethenyl}nicotinamide], the MIC in assay [1] (setting [7]) worked out at 50 µg/mL; in assay [1] (value outside parentheses) it was 67 µM; in assay [5] (setting [7]), 100 µg/mL; in assay [5] (value outside parentheses), 135 µM; in assay [2] (setting [7]), 0.5 µg/mL; in assay [2] (value outside parentheses) it was 0.67 µM. Also, the MIC in assay [6] (setting [7]) was 25 µg/mL; in assay [6] (value outside parentheses), 34 µM; in assay [3] (setting [7]), 50 µg/mL; in assay [3] (value outside parentheses), 67 µM; in assay [4] (setting [7]), 100 µg/mL; in assay [4] (value outside parentheses), 135 µM.
